Reference: the NIST ThermoML archive (doi:10.1021/acs.jced.8b00132)
Values joined by “and” are separate entries in the source; they are usually repeats but may differ in a detail not shown here. Equal values may be shown once.

Conditions: transient hot wire

O=C(C(F)(F)C(F)(F)F)C(F)(C(F)(F)F)C(F)(F)F [dodecafluoro-2-methylpentan-3-one]
Conditions | thermal conductivity
359 K, 91 kPa, Gas | 0.0172 W/m/K and 0.01701 W/m/K
359.01 K, 17992 kPa, Liquid | 0.05723 W/m/K
359.02 K, 33597 kPa, Liquid | 0.06346 W/m/K
359.03 K, 33605 kPa, Liquid | 0.06342 W/m/K
359.05 K, 56095 kPa, Liquid | 0.07054 W/m/K
359.05 K, 56112 kPa, Liquid | 0.07057 W/m/K
359.07 K, 256 kPa, Gas | 0.0162 W/m/K
359.07 K, 257 kPa, Gas | 0.01618 W/m/K
359.07 K, 11964 kPa, Liquid | 0.05443 W/m/K
359.07 K, 11965 kPa, Liquid | 0.05441 W/m/K
359.13 K, 188 kPa, Gas | 0.01636 W/m/K
359.13 K, 24956 kPa, Liquid | 0.06016 W/m/K
359.14 K, 7109 kPa, Liquid | 0.05182 W/m/K
359.14 K, 7110 kPa, Liquid | 0.05179 W/m/K
359.14 K, 24956 kPa, Liquid | 0.06017 W/m/K
359.14 K, 43845 kPa, Liquid | 0.06681 W/m/K
359.14 K, 43855 kPa, Liquid | 0.06693 W/m/K
359.16 K, 26 kPa, Gas | 0.01687 W/m/K
359.16 K, 67834 kPa, Liquid | 0.07385 W/m/K
359.17 K, 67856 kPa, Liquid | 0.07389 W/m/K
359.19 K, 3417 kPa, Liquid | 0.04968 W/m/K
359.19 K, 3419 kPa, Liquid | 0.04955 W/m/K
359.22 K, 17993 kPa, Liquid | 0.05729 W/m/K and 0.05726 W/m/K
359.22 K, 33590 kPa, Liquid | 0.06336 W/m/K
359.23 K, 33591 kPa, Liquid | 0.06345 W/m/K
359.24 K, 91 kPa, Gas | 0.01701 W/m/K and 0.01691 W/m/K
359.24 K, 56073 kPa, Liquid | 0.07065 W/m/K
359.24 K, 56086 kPa, Liquid | 0.07061 W/m/K
359.27 K, 352 kPa, Liquid | 0.04733 W/m/K and 0.04736 W/m/K
359.28 K, 352 kPa, Liquid | 0.04735 W/m/K
359.29 K, 352 kPa, Liquid | 0.04741 W/m/K
359.29 K, 11963 kPa, Liquid | 0.05419 W/m/K
359.29 K, 11964 kPa, Liquid | 0.05442 W/m/K
359.3 K, 256 kPa, Gas | 0.01611 W/m/K
359.31 K, 256 kPa, Gas | 0.01615 W/m/K
359.32 K, 43840 kPa, Liquid | 0.06681 W/m/K
359.33 K, 24951 kPa, Liquid | 0.06022 W/m/K
359.34 K, 24951 kPa, Liquid | 0.06017 W/m/K
359.34 K, 43843 kPa, Liquid | 0.06687 W/m/K
359.35 K, 67807 kPa, Liquid | 0.07425 W/m/K
359.36 K, 7099 kPa, Liquid | 0.0518 W/m/K
359.36 K, 67822 kPa, Liquid | 0.07392 W/m/K
359.37 K, 187 kPa, Gas | 0.01646 W/m/K
359.37 K, 7108 kPa, Liquid | 0.05182 W/m/K
359.38 K, 187 kPa, Gas | 0.01639 W/m/K
359.4 K, 26 kPa, Gas | 0.01671 W/m/K
359.41 K, 26 kPa, Gas | 0.01672 W/m/K
359.42 K, 3418 kPa, Liquid | 0.04952 W/m/K
359.42 K, 3419 kPa, Liquid | 0.04953 W/m/K
359.42 K, 33575 kPa, Liquid | 0.06335 W/m/K
359.43 K, 33582 kPa, Liquid | 0.06336 W/m/K
359.43 K, 56047 kPa, Liquid | 0.07056 W/m/K
359.44 K, 17994 kPa, Liquid | 0.05721 W/m/K
359.44 K, 18001 kPa, Liquid | 0.05746 W/m/K
359.44 K, 56060 kPa, Liquid | 0.07057 W/m/K
359.5 K, 91 kPa, Gas | 0.01707 W/m/K
359.51 K, 91 kPa, Gas | 0.017 W/m/K
359.51 K, 11963 kPa, Liquid | 0.05441 W/m/K
359.52 K, 352 kPa, Liquid | 0.04737 W/m/K and 0.04738 W/m/K
359.52 K, 353 kPa, Liquid | 0.04735 W/m/K
359.52 K, 11964 kPa, Liquid | 0.05441 W/m/K
359.53 K, 352 kPa, Liquid | 0.04692 W/m/K
359.54 K, 43829 kPa, Liquid | 0.06685 W/m/K
359.54 K, 43830 kPa, Liquid | 0.06684 W/m/K
359.55 K, 24946 kPa, Liquid | 0.06014 W/m/K
359.55 K, 24949 kPa, Liquid | 0.06011 W/m/K
359.56 K, 256 kPa, Gas | 0.01628 W/m/K
359.57 K, 256 kPa, Gas | 0.01631 W/m/K
359.6 K, 7096 kPa, Liquid | 0.05174 W/m/K
359.6 K, 7098 kPa, Liquid | 0.05175 W/m/K
359.63 K, 33565 kPa, Liquid | 0.06333 W/m/K
359.64 K, 187 kPa, Gas | 0.01647 W/m/K and 0.01644 W/m/K
359.64 K, 33572 kPa, Liquid | 0.06333 W/m/K
359.66 K, 18006 kPa, Liquid | 0.0572 W/m/K
359.67 K, 3420 kPa, Liquid | 0.04948 W/m/K
359.67 K, 3421 kPa, Liquid | 0.04951 W/m/K
359.67 K, 18004 kPa, Liquid | 0.05719 W/m/K
359.7 K, 26 kPa, Gas | 0.0168 W/m/K and 0.01681 W/m/K
359.75 K, 11967 kPa, Liquid | 0.05434 W/m/K
359.76 K, 11965 kPa, Liquid | 0.05435 W/m/K
359.77 K, 353 kPa, Liquid | 0.04733 W/m/K
359.78 K, 352 kPa, Liquid | 0.0473 W/m/K and 0.04737 W/m/K
359.78 K, 353 kPa, Liquid | 0.0473 W/m/K
359.78 K, 24941 kPa, Liquid | 0.06008 W/m/K
